According to US20070254882A1, “Sulfamide Derivatives and Pharmaceutical Composition for Upregulation of Lipid Metabolism Comprising Same” (CRYSTAL GENOMICS, INC., priority 2004, published 2007):

Biological target: T1, human PPAR α (Homo sapiens, UniProt Q07869)
T1 construct: expressed in transfected cells; host or cells: HepG2 (ATCC HB-8065) or 293T cells (ATCC CRL-1573)
T1 sequence (Q07869 239-466 limits assumed): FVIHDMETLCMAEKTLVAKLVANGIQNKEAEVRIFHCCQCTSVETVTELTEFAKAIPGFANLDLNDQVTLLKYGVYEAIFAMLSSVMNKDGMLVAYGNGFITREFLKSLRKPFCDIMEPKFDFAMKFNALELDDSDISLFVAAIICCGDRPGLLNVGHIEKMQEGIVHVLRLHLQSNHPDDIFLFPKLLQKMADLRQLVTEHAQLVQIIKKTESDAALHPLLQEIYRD
Assay: Exogeneous PPAR α agonist assay (GAL4 DNA binding domain/PPAR α ligand binding domain, luciferase) in 293T cells
Type: cell-based
Design: scale not given here
Details: 25 μM compound, 48 hours, luciferase activity increase relative to the control
Protocol: Step 1) Exogeneous PPAR α Agonist Assay
Cross-activation assay of the compounds of Examples 1 to 134 against human PPAR α was carried out using a DNA construct of PPAR α including its ligand binding domain and GAL4 DNA binding domain (Sher et al., Biochemistry 32, 5598-5604, 1993) to analyze whether any of the compounds binds to the ligand binding domain of PPAR α expressed by the construct to affect the PPAR α activity. When the GAL4 DNA binding domainm which is fused with PPAR α ligand binding domain, binds to UAS (upstream activation sequence) of firefly-luciferase, the luciferase is expressed. Therefore, the effect of each of the compounds of Examples on PPAR α activation can be evaluated by analyzing the activation of luciferase.
Specifically, 2×10^4 of HepG2 (ATCC HB-8065) or 293T cells (ATCC CRL-1573) were aliquotted into each well of a 96-well plate and cultured for overnight at 37° C. in a CO2 incubator (culture condition: DMEM, 10% FBS and 1% antibiotics).
The transformation of PPAR α DNA was traced as follows. First, a mixture of the following ingredients in amounts per well; Solution A (Promega) containing 50 ng of full length human PPAR α DNA, 50 ng of firefly-luciferase construct, 5 ng of Renilla-luciferase construct, 1.0 μl of PLUS™ reagent, and 8.3 μl of a serum-free medium containing no antibiotics; was prepared and kept at room temperature for 15 min. Solution B, which contained 0.5 μl of Lipofectamine™ reagent and 9.5 μl of serum-free medium without antibiotics per well, and Solution C, which contained 50 μl of serum-free medium per well), were prepared. Solutions A, B and C were mixed together to prepare lipofectamin-DNA complex, and the mixture was kept at room temperature for 15 min. Single layer of cells on each well of a 96-well plate were washed with serum-free DMEM, 70 μl of lipofectamine-DNA complex prepared above was added thereto, the plate was incubated at 37° C. in a 5% CO2 incubator for 3 hours to transform the cells, and […] of a diluted solution of each of the compounds of Examples 1 to 134 per well was added to each well to a final concentration 25 μM, and incubated at 37° C. in a CO2 incubator for 48 hours. Then, the medium was removed, 50 μl of passive lysis buffer (Promega) was added thereto, and the plate was shook at room temperature for 20 min to lysis cells. 40 μl of Luciferase Assay reagent of Dual Luciferase Kit […] per 20 μl of cell lysis buffer was added to the plate, followed by reacting at 20° C. for 8 seconds, and 40 μl of Stop & Glo reagent (Promega) as a stop solution was added thereto to quench the reaction. The luminescence intensities of F-luciferase and R-luciferase were measured with MicroLumat Plus (Berthord Technology).

| Activity at 25 μM Step 1 293T cell | SMILES |
| --- | --- |
| 3 | Cc1ccc(-c2nc(COc3ccc(CN(CC(=O)O)S(=O)(=O)N4CCOCC4)cc3)c(C)o2)cc1 [Example 44, [N-(morpholinyl)sulfonyl-N-[4-[[2-(4-methylphenyl)-5-methyloxazol-4-yl]methoxy]benzyl]amino]acetic acid] |
| 2 | Cc1ccc(-c2nc(COc3ccc(CN(CC(=O)O)S(=O)(=O)N(C)c4ccccc4)cc3)c(C)o2)cc1 [Example 46, [N—[(N-methyl-N-phenyl)amino]sulfonyl-N-[4-[[2-(4-methylphenyl)-5-methyloxazol-4-yl]methoxy]benzyl]amino]acetic acid] |
| 2 | Cc1oc(-c2ccc(C(F)(F)F)cc2)nc1COc1ccc(CN(CC(=O)O)S(=O)(=O)N(C)c2ccccc2)cc1 [Example 47, [N—[(N-methyl-N-phenyl)amino]sulfonyl-N-[4-[[2-(4-trifluoromethylphenyl)-5-methyloxazol-4-yl]methoxy]benzyl]amino]acetic acid] |
| 3 | Cc1oc(-c2ccccc2)nc1COc1ccc(CN(CC(=O)O)S(=O)(=O)N(C)c2ccc(Cl)cc2)cc1 [Example 49, [N—[[N-methyl-N-(4-chlorophenyl)]amino]sulfonyl-N-[4-[(2-phenyl-5-methyloxazol-4-yl)methoxy]benzyl]amino]acetic acid] |
| 2 | Cc1ccc(-c2nc(COc3ccc(CN(CC(=O)O)S(=O)(=O)N(C)c4ccc(Cl)cc4)cc3)c(C)o2)cc1 [Example 50, [N—[[N-methyl-N-(4-chlorophenyl)]amino]sulfonyl-N-[4-[[2-(4-methylphenyl)-5-methyloxazol-4-yl]methoxy]benzyl]amino]acetic acid] |
| 2 | Cc1oc(-c2ccccc2)nc1COc1ccc(CN(CC(=O)O)S(=O)(=O)N2CCc3ccccc32)cc1 [Example 53, [N-(indolinyl)sulfonyl-N-[4-[(2-phenyl-5-methyloxazol-4-yl)methoxy]benzyl]amino]acetic acid] |
| 2 | Cc1ccc(-c2nc(COc3ccc(CN(CC(=O)O)S(=O)(=O)N4CCc5ccccc54)cc3)c(C)o2)cc1 [Example 54, [N-(indolinyl)sulfonyl-N-[4-[[2-(4-methylphenyl)-5-methyloxazol-4-yl]methoxy]benzyl]amino]acetic acid] |
| 2 | Cc1oc(-c2ccc(C(F)(F)F)cc2)nc1COc1ccc(CN(CC(=O)O)S(=O)(=O)N2CCc3ccccc32)cc1 [Example 55, [N-(indolinyl)sulfonyl-N-[4-[[2-(4-trifluoromethylphenyl)-5-methyloxazol-4-yl]methoxy]benzyl]amino]acetic acid] |
| 4 | Cc1ccc(-c2nc(COc3ccc(CN(CC(=O)O)S(=O)(=O)N4CCCc5ccccc54)cc3)c(C)o2)cc1 [Example 58, [N-(1,2,3,4-tetraquinolinyl)sulfonyl-N-[4-[[2-(4-methylphenyl)-5-methyloxazol-4-yl]methoxy]benzyl]amino]acetic acid] |
| 3 | Cc1oc(-c2ccc(C(F)(F)F)cc2)nc1COc1ccc(CN(CC(=O)O)S(=O)(=O)N2CCCc3ccccc32)cc1 [Example 59, [N-(1,2,3,4-tetrahydroquinolinyl)sulfonyl-N-[4-[[2-(4-trifluoromethylphenyl)-5-methyloxazol-4-yl]methoxy]benzyl]amino]acetic acid] |
| 1 | Cc1oc(-c2ccc(C(F)(F)F)cc2)nc1CCOc1cccc(CN(CC(=O)O)S(=O)(=O)N2CCCC2)c1 [Example 85, [N-(pyrrolidinyl)sulfonyl-N-[3-[2-[2-(4-trifluoromethylphenyl)-5-methyloxazol-4-yl]ethoxy]benzyl]amino]acetic acid] |
| 1 | Cc1oc(-c2ccc(C(F)(F)F)cc2)nc1CCOc1cccc(CN(CC(=O)O)S(=O)(=O)N2CCOCC2)c1 [Example 87, [N-(morpholinyl)sulfonyl-N-[3-[2-[2-(4-trifluoromethylphenyl)-5-methyloxazol-4-yl]ethoxy]benzyl]amino]acetic acid] |
| 1 | Cc1oc(-c2ccc(C(F)(F)F)cc2)nc1CCOc1cccc(CN(CC(=O)O)S(=O)(=O)N2CCN(C)CC2)c1 [Example 89, [N-(4-methyl-1-piperazinyl)sulfonyl-N-[3-[2-[2-(4-trifluoromethylphenyl)-5-methyloxazol-4-yl]ethoxy]benzyl]amino]acetic acid] |
| 2 | Cc1oc(-c2ccccc2)nc1CCOc1cccc(CN(CC(=O)O)S(=O)(=O)N2CCCc3ccccc32)c1 [Example 94, [N-(1,2,3,4-tetrahydroquinolinyl)sulfonyl-N-[3-[2-(2-phenyl-5-methyloxazol-4-yl)ethoxy]benzyl]amino]acetic acid] |

Second part, the molecule before the results:

| SMILES | Activity at 25 μM Step 1 293T cell |
| --- | --- |
| Cc1oc(-c2cccs2)nc1COc1ccc(CN(CC(=O)O)S(=O)(=O)N(C)c2ccccc2)cc1 [Example 48, [N—[(N-methyl-N-phenyl)amino]sulfonyl-N-[4-[[2-(thiophen-2-yl)-5-methyloxazol-4-yl]methoxy]benzyl]amino]acetic acid] | 2 |
| Cc1oc(-c2ccccc2)nc1CCOc1cccc(CN(CC(=O)O)S(=O)(=O)N(C)C)c1 [Example 61, [N—(N,N-dimethylamino)sulfonyl-N-[3-[2-(2-phenyl-5-methyloxazol-4-yl)ethoxy]benzyl]amino]acetic acid] | 2 |
| Cc1oc(-c2ccc(C(F)(F)F)cc2)nc1CCOc1cccc(CN(CC(=O)O)S(=O)(=O)NC(C)(C)C)c1 [Example 66, [N—(N-t-butylamino)sulfonyl-N-[3-[2-[2-(4-trifluoromethylphenyl)-5-methyloxazol-4-yl]ethoxy]benzyl]amino]acetic acid] | 1 |
| Cc1oc(-c2cccs2)nc1CCOc1cccc(CN(CC(=O)O)S(=O)(=O)N(C)C)c1 [Example 72, [N—(N,N-dimethylamino)sulfonyl-N-[3-[2-[2-(thiophen-2-yl)-5-methyloxazol-4-yl]ethoxy]benzyl]amino]acetic acid] | 2 |
| Cc1ccc(-c2nc(CCOc3cccc(CN(CC(=O)O)S(=O)(=O)N4CCCC4)c3)c(C)o2)cc1 [Example 84, [N-(pyrrolidinyl)sulfonyl-N-[3-[2-[2-(4-methylphenyl)-5-methyloxazol-4-yl]ethoxy]benzyl]amino]acetic acid] | 1 |
| Cc1ccc(-c2nc(CCOc3cccc(CN(CC(=O)O)S(=O)(=O)N4CCOCC4)c3)c(C)o2)cc1 [Example 86, [N-(morpholinyl)sulfonyl-N-[3-[2-[2-(4-methylphenyl)-5-methyloxazol-4-yl]ethoxy]benzyl]amino]acetic acid] | 2 |
| Cc1ccc(-c2nc(CCOc3cccc(CN(CC(=O)O)S(=O)(=O)N4CCN(C)CC4)c3)c(C)o2)cc1 [Example 88, [N-(4-methyl-1-piperazinyl)sulfonyl-N-[3-[2-[2-(4-methylphenyl)-5-methyloxazol-4-yl]ethoxy]benzyl]amino]acetic acid] | 1 |
| Cc1oc(-c2ccccc2)nc1CCOc1ccc(CN(CC(=O)O)S(=O)(=O)N(C)C)cc1 [Example 98, [N—(N,N-dimethylamino)sulfonyl-N-[4-[2-(2-phenyl-5-methyloxazol-4-yl)ethoxy]benzyl]amino]acetic acid] | 1 |
| Cc1ccc(-c2nc(CCOc3ccc(CN(CC(=O)O)S(=O)(=O)N(C)C)cc3)c(C)o2)cc1 [Example 99, [N—(N,N-dimethylamino)sulfonyl-N-[4-[2-[2-(4-methylphenyl)-5-methyloxazol-4-yl]ethoxy]benzyl]amino]acetic acid] | 2 |
| Cc1ccc(-c2nc(CCOc3ccc(CN(CC(=O)O)S(=O)(=O)NC(C)(C)C)cc3)c(C)o2)cc1 [Example 100, [N—(N-t-butylamino)sulfonyl-N-[4-[2-[2-(4-methylphenyl)-5-methyloxazol-4-yl]ethoxy]benzyl]amino]acetic acid] | 2 |
